We go through nine compounds from patent publication EP3628664A1, “IRREVERSIBLE INHIBITORS OF KRAS G12C MUTANT” (Max-Planck-Gesellschaft zur Förderung der Wissenschaften …, priority 2018, dated 2020).

The target in series [1] is T1, KRas G12C (Homo sapiens, UniProt P01116, G12C). Kind of series: Tethering assay: covalent adduct formation determined by MALDI. Type of series: binding. The settings on record: 20 mM HEPES, pH 7.5, 150 mM NaCl, room temperature; for Covalent adduct formation 30 min: after 30 min; for Covalent adduct formation 24h: after 24h; for Covalent adduct formation 48h: after 48h. As for the experimental part:
Protein was incubated with the compounds in 20 mM HEPES, pH 7.5, 150 mM NaCl at room temperature for the specific times. For MALDI experiments, a saturated solution of sinapic acid (Aldrich) in H2O (0.1% TFA) / ACN (2:1) was used as matrix. 1 µL of the samples was mixed with 5 µL of matrix, and 1 µL of this mixture was placed on an MTP 384 ground steel target plate and dried in air. Mass spectra were obtained over the m/z range 17.000-21.000 using a Bruker UltrafleXtreme TOF/TOF mass spectrometer. […]

The target of series [2] is T1, KRas G12C. Kind of series: Competitive LC-MS experiment with KRas G12C in the presence of glutathione. The class given is binding. Here is the method:
In competitive experiments it was shown that the inventive compounds bind selectively to the KRas G12C mutant in the presence of glutathione (GSH).
Cell indices ±s.d. were measured in technical triplicates and biological duplicates. Staurosporin was used as control compound.

The nature of series [3]: LC-MS stability of compound with glutathione in PBS buffer at 37 °C. The class given is physicochemical.
A short description of series [4]: Hydrolysis stability in HEPES buffer (LC-MS). The class given is physicochemical. As to conditions: HEPES buffer (pH 7.5), 37 °C, 24 hours. Here is the method:
Compound 4 was dissolved in HEPES (4-(2-hydroxyethyl)-1-piperazineethanesulfonic acid) buffer (pH 7.5) at 37 °C for 24 hours.

On to `Cc1cc(C)c(NCC(=O)N2CCN(C(=O)c3cnc(Cl)nc3)CC2)c(C)c1` [Compound 9, 1-(4-(2-chloropyrimidine-5-carbonyl)piperazin-1-yl)-2-(mesitylamino)ethan-1-one], for which, at KRas G12C [1], the “Covalent adduct formation 30 min” value is on record as “+++ (covalent labeling > 90%)”, the “Covalent adduct formation 24h” value is “+++ (covalent labeling > 90%)” and the “Covalent adduct formation 48h” value is on record as “+++ (covalent labeling > 90%)”.
On to `CC1(c2cc(NCC(=O)N3CCN(C(=O)c4cnc(Cl)nc4)CC3)c(O)cc2Cl)CC1` [Compound 5, 2-((4-chloro-2-hydroxy-5-(1-methylcyclopropyl)phenyl)amino)-1-(4-(2-chloropyrimidine-5-carbonyl)piperazin-1-yl)ethan-1-one], for which, on KRas G12C [1], the “Covalent adduct formation 30 min” value is listed as “+++ (covalent labeling > 90%)”, the “Covalent adduct formation 24h” value is recorded as “+++ (covalent labeling > 90%)” and the “Covalent adduct formation 48h” value is listed as “+++ (covalent labeling > 90%)”.
Take `CCC(C)(C)c1cc(NCC(=O)N2CCN(C(=O)c3cnc(Cl)nc3)CC2)c(O)cc1Cl` [Compound 4, 2-((4-chloro-2-hydroxy-5-(tert-pentyl)phenyl)amino)-1-(4-(2-chloropyrimidine-5-carbonyl)piperazin-1-yl)ethan-1-one]: at KRas G12C [1], the “Covalent adduct formation 30 min” value is on record as “+++ (covalent labeling > 90%)”, the “Covalent adduct formation 24h” value is “+++ (covalent labeling > 90%)” and the “Covalent adduct formation 48h” value was “+++ (covalent labeling > 90%)”. Also, the glutathione-4 adduct formation entry on KRas G12C [2] (KRas G12C, compound 4 and glutathione, up to 5 hours) is “No glutathione-4 adduct formation could be observed”. Besides, on KRas G12C [2] (in the presence of glutathione, after 1 hour), the “covalent adduct formation with KRas G12C” value was “Nearly complete”. For the same compound, the “incubation time after which compound remains unreacted” value in series [3] (in the presence of glutathione) is on record as “more than 18 hours”. The “formation of the glutathione-4 covalent adduct” value in series [3] (mixture with glutathione) is on record as “occurs slowly”. The stability entry in series [3] (mixture with glutathione, up to 24 hours) is “good stability”. For the same compound, the remaining at 18 h in series [3] (pH 7.5, with glutathione, after 18 hours incubation time, read-out: compound remains unreacted) is around 50%. The stability against hydrolysis result in series [4] is “stable against hydrolysis”.
As to `CC(C)(C)c1ccc(O)c(NCC(=O)N2CCN(C(=O)c3cnc(Cl)nc3)CC2)c1` [Compound 1, 2-((5-(tert-butyl)-2-hydroxyphenyl)amino)-1-(4-(2-chloropyrimidine-5-carbonyl)piperazin-1-yl)ethan-1-one], at KRas G12C [1], the “Covalent adduct formation 30 min” value is “+++ (covalent labeling > 90%)”, the “Covalent adduct formation 24h” value is reported as “+++ (covalent labeling > 90%)” and the “Covalent adduct formation 48h” value is “+++ (covalent labeling > 90%)”.
In the case of `CC(C)(C)c1cc(NCC(=O)N2CCN(C(=O)c3cnc(Cl)cn3)CC2)c(O)cc1Cl` [Compound 8, 2-((5-(tert-butyl)-4-chloro-2-hydroxyphenyl)amino)-1-(4-(5-chloropyrazine-2-carbonyl)piperazin-1-yl)ethan-1-one], at KRas G12C [1], the “Covalent adduct formation 30 min” value is recorded as “+ (5 < covalent labeling ≤ 50)”, the “Covalent adduct formation 24h” value was “++ (50 < covalent labeling ≤ 90)” and the “Covalent adduct formation 48h” value was “+++ (covalent labeling > 90%)”.
Regarding `CC(C)(C)c1cc(NCC(=O)N2CCN(C(=O)c3cnc(Cl)nc3)CC2)c(O)cc1Cl` [Compound 3, 2-((5-(tert-butyl)-4-chloro-2-hydroxyphenyl)amino)-1-(4-(2-chloropyrimidine-5-carbonyl)piperazin-1-yl)ethan-1-one], at KRas G12C [1], the “Covalent adduct formation 30 min” value is on record as “+++ (covalent labeling > 90%)”, the “Covalent adduct formation 24h” value is “+++ (covalent labeling > 90%)” and the “Covalent adduct formation 48h” value is “+++ (covalent labeling > 90%)”.
On to `CCC(C)(C)c1ccc(O)c(NCC(=O)N2CCN(C(=O)c3cnc(Cl)nc3)CC2)c1` [Compound 2, 1-(4-(2-chloropyrimidine-5-carbonyl)piperazin-1-yl)-2-((2-hydroxy-5-(tert-pentyl)phenyl)amino)ethan-1-one], for which, on KRas G12C [1], the “Covalent adduct formation 30 min” value is listed as “+++ (covalent labeling > 90%)”, the “Covalent adduct formation 24h” value was “+++ (covalent labeling > 90%)” and the “Covalent adduct formation 48h” value is recorded as “+++ (covalent labeling > 90%)”.
On to `CCC(C)(C)c1cc(NCC(=O)N2CCN(S(=O)(=O)c3cnc(Cl)nc3)CC2)c(O)cc1Cl` [Compound 7, 2-((4-chloro-2-hydroxy-5-(tert-pentyl)phenyl)amino)-1-(4-((2-chloropyrimidin-5-yl)sulfonyl)piperazin-1-yl)ethan-1-one], for which, at KRas G12C [1], the “Covalent adduct formation 30 min” value is listed as “+++ (covalent labeling > 90%)”, the “Covalent adduct formation 24h” value is listed as “+++ (covalent labeling > 90%)” and the “Covalent adduct formation 48h” value is “+++ (covalent labeling > 90%)”.
With `CCC(C)(C)c1cc(NCC(=O)N2CCN(C(=O)c3ccnc(Cl)n3)CC2)c(O)cc1Cl` [Compound 6, 2-((4-chloro-2-hydroxy-5-(tert-pentyl)phenyl)amino)-1-(4-(2-chloropyrimidine-4-carbonyl)piperazin-1-yl)ethan-1-one], at KRas G12C [1], the “Covalent adduct formation 30 min” value is listed as “+ (5 < covalent labeling ≤ 50)”, the “Covalent adduct formation 24h” value is recorded as “++ (50 < covalent labeling ≤ 90)” and the “Covalent adduct formation 48h” value is recorded as “+++ (covalent labeling > 90%)”.
